The nature of assay [1]: Suntest exposure (xenon emitter) of permanent-waved natural hair, 15% extension level in the wet state. The note with it: Example 2 styling foam (0.5 g UVINUL MS 40 in 100 g composition before aerosol packaging), no rinse, 180 hours Suntest, vs foam without UVINUL MS 40. Here is the method:
Permanent-waved natural hair receives an application of this foam and then, without this being followed by a rinse, is subjected to 180 hours' exposure to the Suntest, as described in Example 1.

A short description of assay [2]: Suntest exposure (xenon emitter) of bleached hair, 15% extension level in the wet state. The settings on record: 120 hours Suntest; for mean value of the 15% extension level in the wet state: no rinse.

The structures appear in SMILES notation.

As for `COc1cc(O)c(C(=O)c2ccccc2)cc1S(=O)(=O)O` [UVINUL MS 40, 2-hydroxy-4-methoxybenzophenone-5-sulphonic acid], the “mean value of the 15% extension level in the wet state” value is “significant improvement” in assay [1]; “significant improvement” in assay [2] (Example 3 styling gel (0.3 g/100 g UVINUL MS 40), three applications, vs gel without UVINUL MS 40); “improved very appreciably” in assay [2] (Example 4 styling spray (1 g/100 g UVINUL MS 40), one application, vs spray without UVINUL MS 40). Further, in assay [2] (Example 1 shampoo (1 g/100 g UVINUL MS 40), washed five times, vs shampoo base without UVINUL MS 40), the “mean values of the 15% extension level in the wet state” value is recorded as “substantial improvement”.

Values taken from patent publication US5240695A, “Use of 2-hydroxy-4-methoxybenzophenone-5-sulphonic acid or its salts for protecting the hair against environmental attacking agents, and especially against light and process for protecting the hair using the compound” (L'Oreal, priority 1988, dated 1993).
